In data set [1] the target is Indolethylamine N-methyltransferase (Homo sapiens, UniProt O95050). As to the kind of experiment: Inhibition of N-terminal 6His-tagged full length human recombinant INMT (1 to 263 residues) expressed in Escherichia coli BL21 (DE3) cells using S-(5'-Adenosyl)-L-methionine chloride dihydrochloride and 9H-pyrido[3,4-b]indole as substrate incubated for 2.5 hrs by MTase-Glo assay.

The next data set relates to HEK293. As to the kind of experiment: Cytotoxicity against HEK293 cells assessed as reduction in ATP incubated for 10 mins by CellTiter-Glo luminescence assay. Format: toxicity, cell-based. Conditions: human, hek293, 10 min.
Data set [2] has as its target T1, Nicotinamide N-methyltransferase (Homo sapiens, UniProt P40261).
T1 sequence (P40261 whole entry): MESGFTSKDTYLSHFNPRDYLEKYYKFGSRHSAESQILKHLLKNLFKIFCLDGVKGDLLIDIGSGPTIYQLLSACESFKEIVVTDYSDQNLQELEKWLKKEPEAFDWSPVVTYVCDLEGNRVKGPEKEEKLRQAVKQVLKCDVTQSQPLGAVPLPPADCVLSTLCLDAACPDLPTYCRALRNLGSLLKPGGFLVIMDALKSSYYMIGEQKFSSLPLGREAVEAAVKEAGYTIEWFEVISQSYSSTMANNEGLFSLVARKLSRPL
Description: Inhibition of N-terminal 6His-tagged full length human recombinant NNMT (1 to 264 residues) expressed in Escherichia coli BL21 (DE3) cells using S-adenosyl-L-methionine and NAM as substrate incubated for 2 hrs by RapidFire Mass Spectrometry.

The target in data set [3] is T1, Nicotinamide N-methyltransferase. Description: Inhibition of N-terminal 6His-tagged full length human recombinant NNMT (1 to 264 residues) expressed in Escherichia coli BL21 (DE3) cells using S-adenosyl-L-methionine and NAM as substrate incubated for 22 to 24 hrs by RapidFire Mass Spectrometry.
For data set [4] the target is unchanged. Description: Inhibition of NNMT in HEK293 cells measured after 20 to 24 hrs by RapidFire Mass Spectrometry. Format: cell-based.

Structures are written as SMILES. Positions of bridges follow the written chain, without caps; N, C: chain ends. Non-standard residues stand in square brackets, D forms with d. Residues, ends and D or L forms follow the SMILES beside them. Phe(4-CONH2) = NC(=O)c1ccc(C[C@H](N)C(=O)O)cc1; NHexGly = CCCCCCNCC(=O)O; Sar = CNCC(=O)O

Chain of Indolethylamine N-methyltransferase (O95050 whole entry, the tested form may be a part): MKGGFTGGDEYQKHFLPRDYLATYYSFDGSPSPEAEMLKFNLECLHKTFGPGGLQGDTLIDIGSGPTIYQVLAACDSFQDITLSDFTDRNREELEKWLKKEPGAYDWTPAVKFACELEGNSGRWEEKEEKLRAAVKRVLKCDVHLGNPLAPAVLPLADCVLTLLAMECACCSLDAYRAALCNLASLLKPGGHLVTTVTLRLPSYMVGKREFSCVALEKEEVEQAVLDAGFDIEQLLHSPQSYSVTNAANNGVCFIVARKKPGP

With `Cc1ccc2c(c1)cc([C@H]1C[C@H](n3ccnc3CN)CN1C(=O)c1cnc3[nH]ccc3c1)n2Cc1ccc(Cl)cc1`, the IC50 in data set [1] was > 100 µM. Turning to `NCc1nccn1[C@H]1C[C@H](c2nc3ccccc3n2Cc2ccccc2)N(C(=O)c2cnc3[nH]ccc3c2)C1`, in data set [1], the IC50 is > 100 µM. Take `Cc1ccc2c(c1)cc([C@H]1C[C@H](n3nc(C)cc3CN)CN1C(=O)c1cnc3[nH]c(C)cc3c1)n2Cc1ccc(Cl)cc1`: in data set [1], the IC50 is > 100 µM. For the same compound, the CC20 in the data set on HEK293 is > 10 µM.

Regarding `CCCCCCN(CC(=O)N[C@@H](Cc1c[nH]c2ccccc12)C(N)=O)C(=O)CNC(=O)[C@H](CCCNC(=N)N)NC(C)=O` (Ac-RG[NHexGly]W-NH2), the 50% inhibitory concentration (IC50) in data set [2] is > 30 µM. On to `CCCCCCN1CC(=O)N[C@@H](Cc2c[nH]c3ccccc23)C(=O)N2CCC[C@H]2C(=O)N[C@H](C(N)=O)CSCC(=O)N[C@@H](Cc2ccccc2)C(=O)N[C@@H](Cc2ccc(C(N)=O)cc2)C(=O)N[C@@H](C)C(=O)NCC1=O` ({CH2CO}-F[Phe(4-CONH2)]AG[NHexGly]WPC-NH2; thioether N-8), for which the concentration for half-maximal inhibition (IC50) in data set [3] was > 100 µM.

As for `C[C@@H]1NC(=O)CNC(=O)[C@H](CCCNC(=N)N)NC(=O)[C@H](Cc2ccc(C(N)=O)cc2)NC(=O)[C@H](Cc2ccccc2)NC(=O)CSC[C@@H](C(N)=O)NC(=O)[C@@H]2CCCN2C(=O)[C@H](Cc2c[nH]c3ccccc23)NC1=O` ({CH2CO}-F[Phe(4-CONH2)]RGAWPC-NH2; thioether N-8), the IC50 in data set [3] was > 100 µM.

As for `CCCCCCN1CC(=O)N[C@@H](C)C(=O)N2CCC[C@H]2C(=O)N[C@H](C(N)=O)CSCC(=O)N[C@@H](Cc2ccccc2)C(=O)N[C@@H](Cc2ccc(C(N)=O)cc2)C(=O)N[C@@H](CCCNC(=N)N)C(=O)NCC1=O` ({CH2CO}-F[Phe(4-CONH2)]RG[NHexGly]APC-NH2; thioether N-8), the IC50 in data set [3] is > 100 µM. In the case of `CCCCCCN1CC(=O)N[C@@H](Cc2c[nH]c3ccccc23)C(=O)N2CCC[C@H]2C(=O)N[C@H](C(=O)NCC(N)=O)CSCC(=O)N[C@@H](Cc2ccccc2)C(=O)N[C@@H](Cc2ccc(C(N)=O)cc2)C(=O)N[C@@H](CCCNC(=N)N)C(=O)NCC1=O` ({CH2CO}-F[Phe(4-CONH2)]RG[NHexGly]WPCG-NH2; thioether N-8), the IC50 in data set [1] is > 100 µM. As for `CN1CC(=O)N[C@@H](Cc2c[nH]c3ccccc23)C(=O)N2CCC[C@H]2C(=O)N[C@H](C(N)=O)CSCC(=O)N[C@@H](Cc2ccccc2)C(=O)N[C@@H](Cc2ccc(C(N)=O)cc2)C(=O)N[C@@H](CCCNC(=N)N)C(=O)NCC1=O` ({CH2CO}-F[Phe(4-CONH2)]RG[Sar]WPC-NH2; thioether N-8), the IC50 in data set [3] was > 30 µM.

`Nc1ncnc2c1ncn2[C@@H]1O[C@H](C[C@@H](N)CC[C@H](N)C(=O)O)[C@@H](O)[C@H]1O` [SINEFUNGIN]: the IC50 in data set [1] is 4 µM; in data set [2], 5.2 µM; in data set [4], > 100 µM.

A word on the IC50: it is the concentration that gives 50% inhibition.

The values above are taken from ChEMBL document CHEMBL5137077, “Peptide-to-Small Molecule: A Pharmacophore-Guided Small Molecule Lead Generation Strategy from High-Affinity Macrocyclic Peptides” (J Med Chem, 2022).
